# Data as given in PMC12217461 (Antimicrobial Agents and Chemotherapy, 2025).
# Key:
# Type in all cases: cell-based
# E. coli IMP-2 = experiment: MIC broth microdilution, recombinant E. coli; settings: Escherichia coli, IMP2; IMP-2-like; TAN/XER fixed at 4 µg/mL, XER 8 µg/mL in MEM-XER; read-out: Minimal inhibitory concentration
# [1] = test system: Klebsiella pneumoniae ATCC BAA-2814; experiment: microbe, parasite or virus in culture; settings: ATCCBAA2814, read-out: Minimal inhibitory concentration
# Description: (§1) To assess the inhibitory potency of XER, susceptibility testing was performed by broth microdilution method, determining the minimal inhibitory concentrations (MICs) of different antibiotics or antibiotic plus β-lactamase inhibitor combinations, including cefepime (FEP), imipenem (IPM), meropenem (MEM), and their combinations with XER (FEP-XER, IPM-XER, and MEM-XER). All data obtained with XER-based combinations were compared with data with TAN-based combinations, FEP-TAN, IPM-TAN, and MEM-TAN ([16]). FEP was purchased from Sigma-Aldrich (Saint-Louis, USA), whereas MEM was from HuiChem (Shanghai, China). […] MICs were determined in triplicate in cation-adjusted Mueller-Hinton (MH) broth (Bio-Rad, Marnes-la-Coquette, France) according to the CLSI guidelines ([53]). The results were interpreted according to the decrease in MIC value for the same antibiotic or combination of the corresponding recombinant strain producing the MBL enzyme. […] In a recent phase I clinical evaluation, XER was combined with cefiderocol. However, as this latter β-lactam substrate is known to be poorly hydrolyzed by IMP enzymes, it was not considered for the evaluation of XER inhibitory activity in this study. Instead, carbapenems were used as a substrate to evaluate the β-lactamase IMP activity in the presence or absence of XER and TAN, as it was deemed more specific for the IMP carbapenemase activity.
# [2] = test system: Escherichia coli ATCC 25922; experiment: microbe, parasite or virus in culture; settings: ATCC25922, QC 3, no acquired β-lactamase, TAN/XER fixed at 4 µg/mL, XER 8 µg/mL in MEM-XER, read-out: Minimal inhibitory concentration
# Description: as §1
# [3] = test system: Escherichia coli NCTC 13353; experiment: microbe, parasite or virus in culture; settings: NCTC13353, read-out: Minimal inhibitory concentration
# Description: as §1
# P. aeruginosa ATCC 27853 = experiment: microbe, parasite or virus in culture; settings: Pseudomonas aeruginosa, ATCC27853; QC 4; no acquired β-lactamase; TAN/XER fixed at 4 µg/mL, XER 8 µg/mL in MEM-XER; read-out: Minimal inhibitory concentration
# Description: as §1
# [4] = test system: Citrobacter freundii SMART 958; experiment: microbe, parasite or virus in culture; settings: SMART958, IMP-1, OXA-142, TAN/XER fixed at 4 µg/mL, XER 8 µg/mL in MEM-XER, read-out: Minimal inhibitory concentration
# Description: (§2) Most isolates and their respective β-lactamase content were characterized by whole-genome sequencing.
# as §1
# [5] = test system: Klebsiella pneumoniae SMART 1133; experiment: microbe, parasite or virus in culture; settings: SMART1133, IMP-1, CTX-M-2, TAN/XER fixed at 4 µg/mL, XER 8 µg/mL in MEM-XER, read-out: Minimal inhibitory concentration
# Description: as §2, §1
# [6] = test system: Klebsiella pneumoniae SMART 1131; experiment: microbe, parasite or virus in culture; settings: SMART1131, IMP-6, CTX-M-2, TAN/XER fixed at 4 µg/mL, XER 8 µg/mL in MEM-XER, read-out: Minimal inhibitory concentration
# Description: as §2, §1
# [7] = test system: Pseudomonas aeruginosa PA10; experiment: microbe, parasite or virus in culture; settings: IMP-2, TAN/XER fixed at 4 µg/mL, XER 8 µg/mL in MEM-XER, read-out: Minimal inhibitory concentration
# Description: as §2, §1
# [8] = test system: Serratia marcescens SMART 2558; experiment: microbe, parasite or virus in culture; settings: SMART2558, IMP-8, CTX-M-3, TAN/XER fixed at 4 µg/mL, XER 8 µg/mL in MEM-XER, read-out: Minimal inhibitory concentration
# Description: as §2, §1
# [9] = test system: Klebsiella pneumoniae SMART 1137; experiment: microbe, parasite or virus in culture; settings: SMART1137, read-out: Minimal inhibitory concentration
# Description: as §2, §1
# [10] = test system: Pseudomonas aeruginosa CC02-010; experiment: microbe, parasite or virus in culture; settings: CC02010, IMP-7, TAN/XER fixed at 4 µg/mL, XER 8 µg/mL in MEM-XER, read-out: Minimal inhibitory concentration
# Description: as §2, §1
# C. freundii SMART 315 = experiment: microbe, parasite or virus in culture; settings: Citrobacter freundii, SMART315; IMP-4, CTX-M-9; TAN/XER fixed at 4 µg/mL, XER 8 µg/mL in MEM-XER; read-out: Minimal inhibitory concentration
# Description: as §2, §1
# [11] = test system: Pseudomonas aeruginosa PA11; experiment: microbe, parasite or virus in culture; settings: IMP-10, TAN/XER fixed at 4 µg/mL, XER 8 µg/mL in MEM-XER, read-out: Minimal inhibitory concentration
# Description: as §2, §1
# [12] = test system: Enterobacter hormaechei subsp. steigerwaltii SMART 398; experiment: microbe, parasite or virus in culture; settings: read-out: Minimal inhibitory concentration
# Description: as §2, §1
# E. coli TOP10 = experiment: microbe, parasite or virus in culture; settings: Escherichia coli, no MBL, TAN/XER fixed at 4 µg/mL, XER 8 µg/mL in MEM-XER, read-out: Minimal inhibitory concentration
# Excerpt: (§3) Genes encoding different acquired IMP-like enzymes suspected to be resistant to XER (blaIMP-6, blaIMP-7, blaIMP-10, blaIMP-14, blaIMP-26, blaIMP-34, and blaIMP-59) were amplified by PCR, and corresponding amplicons were cloned into plasmid pUCP24 and expressed in E. coli TOP10. The following recombinant E. coli strains producing IMP-1, IMP-4, IMP-19, and NDM-1 were used from a previous study ([16]). […] For that purpose, a list of primers was designed and provided as Table S1. […] The nomenclature used in this study was according to the BBL sequence numbering ([52]).
# as §1
# E. coli IMP-10 = experiment: MIC broth microdilution, recombinant E. coli; settings: Escherichia coli, IMP10; IMP-1-like, V67F; TAN/XER fixed at 4 µg/mL, XER 8 µg/mL in MEM-XER; read-out: Minimal inhibitory concentration
# Excerpt: as §3, §1
# E. coli IMP-26 = experiment: MIC broth microdilution, recombinant E. coli; settings: Escherichia coli, IMP26; IMP-4 like, V67F; TAN/XER fixed at 4 µg/mL, XER 8 µg/mL in MEM-XER; read-out: Minimal inhibitory concentration
# Excerpt: as §3, §1
Compound,MIC (E. coli IMP-2) [µg/mL],MIC [1] [µg/mL],MIC [2] [µg/mL],MIC [3] [µg/mL],MIC (P. aeruginosa ATCC 27853) [µg/mL],MIC [4] [µg/mL],MIC [5] [µg/mL],MIC [6] [µg/mL],MIC [7] [µg/mL],MIC [8] [µg/mL],MIC [9] [µg/mL],MIC [10] [µg/mL],MIC (C. freundii SMART 315) [µg/mL],MIC [11] [µg/mL],MIC [12] [µg/mL],MIC (E. coli TOP10) [µg/mL],MIC (E. coli IMP-10) [µg/mL],MIC (E. coli IMP-26) [µg/mL]
"CO/N=C(\C(=O)N[C@@H]1C(=O)N2C(C(=O)[O-])=C(C[N+]3(C)CCCC3)CS[C@H]12)c1csc(N)n1 [FEP, cefepime]",8,> 256,≤ 0.25,256,1,32,> 256,64,> 256,32,> 256,> 256,16,> 256,128,≤ 0.25,64,32
"C[C@@H](O)[C@H]1C(=O)N2C(C(=O)O)=C(SCCN=CN)C[C@H]12 [IPM, imipenem]",0.5,16,≤ 0.25,≤ 0.25,1,0.5,128,≤ 0.25,32,≤ 0.25,2,128,≤ 0.25,256,0.5,≤ 0.25,16,8
"C[C@@H](O)[C@H]1C(=O)N2C(C(=O)O)=C(S[C@@H]3CN[C@H](C(=O)N(C)C)C3)[C@H](C)[C@H]12 [MEM, meropenem]",1,64,≤ 0.25,≤ 0.25,0.5,4,64,8,32,0.25,128,256,2,> 256,0.5,≤ 0.25,64,128
